Values of other authors in patent US20260022280A1, “LOW VOC SOLVENT CEMENT FORMULATION WITH REDUCED TOXICITY AND RAPID CURING” (Ashirvad Pipes Pvt Ltd, priority 2022, published 2026).
Where two headings read alike, the source gives them in different places.

Key:
[1] = for ECHA Concern: Yes / No
[2] = test system: Rat; conditions: in vivo
[3] = total solubility parameter
[4] = solvents
[5] = test system: Rabbit
[6] = test system: Rat; conditions: 4 h
[7] = test system: Mouse; conditions: 4 h
[8] = test system: Rat; conditions: Rat male and female

Compound	Vapour Pressure (at 20° C.) [mm Hg]	ECHA Concern [1]	other results
CCOC(C)OCC [1,1 Diethoxy ethane]	20.25	Yes	–
CCOCCOCC [1,2 Diethoxy ethane]	9	Yes	–
C1COCO1 [1,3 Dioxolane]	–	–	LD50 ([2]; po): 5200 mg/kg
CC1CCCO1 (stereo not shown) [2-Methyl tetrahydrofuran]	102	No	–
CC(C)=O [ACE, Acetone]	180	No	SPo (Total) [3]: 9.8 (Cal/cm^3)^1/2; Density [4]: 0.78 g/cc
CC(=O)CC(C)=O [Acetylacetone]	2.96	–	–
O=C1CCCCC1 [CYH, Cyclohexanone]	3.75	No	LD50 Oral [2]: 1544 mg/kg; SPo (Total) [3]: 9.6 (Cal/cm^3)^1/2; LD50 Dermal [5]: 947 mg/kg; LD50 Inhalation ([6]; Rat): 8000 ppm
O=C1CCCC1 [Cyclopentanone]	11.4	No	–
COC1CCCC1 [Cyclopentyl Methyl Ether]	–	No	Vapour Pressure ((25° C.)): 44.92 mm Hg
CCC(=O)CC [Diethyl ketone]	15	No	–
COC(=O)OC [Dimethyl Carbonate]	–	No	Vapour Pressure ((25° C.)): 55.5 mm Hg
COC(=O)CCCCC(=O)OC [Dimethyl adipate]	0.06	No	–
C[S+](C)[O-] [Dimethyl sulfoxide]	0.44	No	–
CN(C)C=O [Dimethylformamide]	3.67	–	–
CCO [Ethanol]	43.5	Yes	–
CCOC(C)=O [Ethyl acetate]	75	No	–
CCC(C)=O [MEK, Methyl Ethyl Ketone]	15	–	Density [4]: 0.80 g/cc; LC50 Inhalation [7]: 32.000 mg/m3
CCCC(C)=O [MPK, Methyl Propyl Ketone]	12	No	LD50 Dermal [8]: > 6480 mg/kg; LD50 Oral [2]: > 16000 mg/kg; SPo (Total) [3]: 9.6 (Cal/cm^3)^1/2; Density [4]: 0.80 g/cc
CO [Methanol]	96.75	–	–
CCCCCC(C)=O [Methyl amyl ketone]	1.5	No	–
CC(=O)CCC(C)C [Methyl iso amyl ketone]	4.5	Yes	–
CC(=O)C(C)C [Methyl iso propyl ketone]	41.25	No	–
CN1CCCC1=O [N-Methyl-2-Pyrrolidone]	0.29	Yes	–
CCCCOC(C)=O [N-butyl acetate]	–	No	–
CCN1CCCCCC1=O [N-ethyl caprolactam]	–	No	–
COC(C)=O [N-methylacetate]	173	Yes	–
C1CCOC1 [THF, Tetrahydrofuran]	145	Yes	Density [4]: 0.88 g/cc; LC50 Inhalation ([6]; Rat male and female): 4 h −> 16.9 mg/l; Vapour Pressure (at 20° C., listed as Tetrahydrofuran): 144.76 mm Hg; Hazard Classification & labelling ([1]; ECHA, harmonised classification / REACH registrations): suspected to be Carcinogenic
CC(=O)OC(C)(C)C [t-butyl acetate]	–	No	Vapour Pressure ((25° C.)): 47.25 mm Hg
O=C1CCCO1 [γ-Butyrolactone]	1.12	No	–
